Laboratory results as given in ChEMBL document CHEMBL1153745, “The Caulerpa pigment caulerpin inhibits HIF-1 activation and mitochondrial respiration” (J Nat Prod, 2009).
Calls of active or inactive are those of the source. No cut-off for these calls is given here.

What was measured:
[1] = Growth inhibition of human HMEC cells up to 30 uM after 48 hrs by sulforhodamine B assay; format: cell-based; conditions: read-out: GI
T47D [2] = experiment: Inhibition of hypoxia-induced VEGF mRNA expression in human T47D cells at 10 uM after 16 hrs by RT-PCR; format: functional, cell-based
T47D [3] = experiment: Inhibition of electron transport protein complex 3 in human T47D cells assessed as decrease in oxygen consumption at 30 uM pretreated for 2 hrs before succinate addition by mitochondrial respiration assay; format: cell-based
T47D [4] = experiment: Growth inhibition of human T47D cells at 1 uM to 30 uM after 48 hrs by sulforhodamine B assay; format: functional, cell-based
HUVEC [5] = experiment: Antiangiogenic activity in human HUVEC cells assessed as decrease in branch point number up to 30 uM after 18 hrs by Matrigel based tube formation assay; format: functional, cell-based
T47D [6] = experiment: Inhibition of hypoxia-induced secreted VEGF protein level in human T47D cells at 10 uM after 16 hrs by ELISA; format: functional, cell-based
T47D [7] = experiment: Inhibition of electron transport protein complex 1 in human T47D cells assessed as decrease in oxygen consumption at 30 uM pretreated for 2 hrs before malate and pyruvate addition by mitochondrial respiration assay; format: cell-based
[8] = molecular target: T1, Hypoxia inducible factors; HIF-1-alpha, HIF-2-alpha (Homo sapiens) (UniProt Q16665+Q99814); experiment: Inhibition of 1,10-phenanthroline-induced HIF1 activation in human T47D cells after 16 hrs by pTK-HRE3-luciferase reporter gene assay; format: cell-based
T47D [9] = experiment: Inhibition of secreted VEGF protein level in human T47D cells under normoxic conditions at 10 uM after 16 hrs by ELISA; format: functional, cell-based
MCF7 = experiment: Growth inhibition of human MCF7 cells at 1 uM to 30 uM after 48 hrs by sulforhodamine B assay; format: functional, cell-based
T47D [10] = experiment: Cytotoxicity against human T47D cells under hypoxic conditions at 30 uM after 16 hrs; format: cell-based
MDA-MB-231 [11] = experiment: Cytotoxicity against human MDA-MB-231 cells up to 30 uM after 22 hrs by neutral red method; format: cell-based; conditions: mda-mb-231, 22 h
T47D [12] = experiment: Inhibition of electron transport protein complex 1 in digitonin-induced permeable human T47D cells assessed as reduction of oxygen consumption at 30 uM relative to control; format: cell-based
T47D [13] = experiment: Inhibition of hypoxia-induced VEGF mRNA expression in human T47D cells at 30 uM after 16 hrs by RT-PCR; format: functional, cell-based
T47D [14] = experiment: Inhibition of 1,10-phenanthroline-induced nuclear HIF1alpha accumulation in human T47D cells at 10 uM after 4 hrs by Western blot analysis; format: functional, cell-based
T47D [15] = experiment: Inhibition of hypoxia-induced nuclear HIF1beta accumulation in human T47D cells at 10 uM after 4 hrs by Western blot analysis; format: functional, cell-based
T47D [16] = experiment: Inhibition of electron transport protein complex 1 in human T47D cells assessed as reduction of oxygen consumption at 10 uM; format: cell-based
MDA-MB-231 [17] = experiment: Cytotoxicity against human MDA-MB-231 cells under hypoxic conditions up to 30 uM after 22 hrs by neutral red method; format: cell-based; conditions: mda-mb-231, 22 h
[18] = molecular target: T1, Hypoxia inducible factors; HIF-1-alpha, HIF-2-alpha (Homo sapiens); experiment: Inhibition of 1,10-phenanthroline-induced HIF1 activation in human T47D cells at 1 uM after 16 hrs by pTK-HRE3-luciferase reporter gene assay; format: cell-based
T47D [19] = experiment: Effect on luciferase expression in hypoxia-stimulated human T47D cells expressing pGL3 construct at 30 uM after 16 hrs by reporter gene assay; format: functional
T47D [20] = experiment: Inhibition of hypoxia-induced GLUT1 mRNA expression in human T47D cells at 30 uM after 16 hrs by RT-PCR; format: functional, cell-based
DU-145 = experiment: Growth inhibition of human DU145 cells at 1 uM to 30 uM after 48 hrs by sulforhodamine B assay; format: functional, cell-based
T47D [21] = experiment: Inhibition of hypoxia-induced GLUT1 mRNA expression in human T47D cells at 10 uM after 16 hrs by RT-PCR; format: functional, cell-based
[22] = molecular target: T1, Hypoxia inducible factors; HIF-1-alpha, HIF-2-alpha (Homo sapiens); experiment: Inhibition of hypoxia-induced HIF1 activation in human T47D cells at 1 uM after 16 hrs by pTK-HRE3-luciferase reporter gene assay; format: cell-based
HUVEC [23] = experiment: Antiangiogenic activity in human HUVEC cells assessed as inhibition of hypoxic T47D cell-conditioned media-induced tube formation at 10 uM after 18 hrs by Matrigel based tube formation assay; format: functional
T47D [24] = experiment: Inhibition of electron transport protein complex 2 in human T47D cells assessed as decrease in oxygen consumption at 30 uM pretreated for 2 hrs before succinate addition by mitochondrial respiration assay; format: cell-based
T47D [25] = experiment: Inhibition of electron transport protein complex 1 in human T47D cells assessed as reduction of oxygen consumption at 30 uM pretreated for 2 hrs relative to untreated control; format: cell-based
T47D [26] = experiment: Inhibition of cellular respiration in human T47D cells assessed as oxygen consumption; format: functional, cell-based
HUVEC [27] = experiment: Antiangiogenic activity in human HUVEC cells assessed as inhibition of normoxic T47D cell-conditioned media-induced tube formation at 30 uM after 18 hrs by Matrigel based tube formation assay; format: functional
MDA-MB-231 [28] = experiment: Inhibition of cell migration in human MDA-MB-231 cells under normoxic conditions after 22 hrs by wound-healing assay; format: functional, cell-based
HUVEC [29] = experiment: Antiangiogenic activity in human HUVEC cells assessed as decrease in tube length up to 30 uM after 18 hrs by Matrigel based tube formation assay; format: functional, cell-based
T47D [30] = experiment: Inhibition of electron transport protein complex 4 in human T47D cells assessed as decrease in oxygen consumption at 30 uM pretreated for 2 hrs before TMPD/ascorbate addition by mitochondrial respiration assay; format: cell-based
T47D [31] = experiment: Inhibition of electron transport protein complex 1 in digitonin-permeabilized human T47D cells assessed as decrease in oxygen consumption at 30 uM by mitochondrial respiration assay; format: cell-based
MDA-MB-231 [32] = experiment: Inhibition of cell migration in human MDA-MB-231 cells under hypoxic conditions after 22 hrs by wound-healing assay; format: functional, cell-based
T47D [33] = experiment: Inhibition of 1,10-phenanthroline-induced GLUT1 mRNA expression in human T47D cells at 30 uM after 16 hrs by RT-PCR; format: functional, cell-based
MDA-MB-231 [34] = experiment: Growth inhibition of human MDA-MB-231 cells at 1 uM to 30 uM after 48 hrs by sulforhodamine B assay; format: functional, cell-based
T47D [35] = experiment: Inhibition of electron transport protein complex 1 in human T47D cells assessed as reduction of oxygen consumption at 30 uM; format: cell-based
T47D [36] = experiment: Inhibition of 1,10-phenanthroline-induced VEGF mRNA expression in human T47D cells at 30 uM after 16 hrs by RT-PCR; format: functional, cell-based
PC-3 = experiment: Growth inhibition of human PC3 cells at 30 uM after 48 hrs by sulforhodamine B assay; format: functional; conditions: PC-3, 48 h, read-out: GI
T47D [37] = experiment: Inhibition of hypoxia-induced nuclear HIF1alpha accumulation in human T47D cells at 10 uM after 4 hrs by Western blot analysis; format: functional, cell-based
HUVEC [38] = experiment: Antiangiogenic activity in human HUVEC cells assessed as inhibition of hypoxic T47D cell-conditioned media-induced tube formation at 30 uM after 18 hrs by Matrigel based tube formation assay; format: functional

COC(=O)/C1=C/c2c([nH]c3ccccc23)/C(C(=O)OC)=C\c2c1[nH]c1ccccc21 [CAULERPIN]
inhibition at 48 h [1]: < 25% | Activity (T47D [2]): inactive | Activity (T47D [3]): inactive | Activity (T47D [4]): Active | Activity (HUVEC [5]): Active | Activity (T47D [6]): Active | Activity (T47D [7]): Active | Activity [8]: Dose-dependent effect | Activity (T47D [9]): inactive | Activity (MCF7): Active | Activity (T47D [10]): <= 10% | Activity (MDA-MB-231 [11]): 15% | inhibition (T47D [12]): 57% | Activity (T47D [13]): Active | Activity (T47D [14]): inactive | Activity (T47D [15]): inactive | Activity (T47D [16]): inactive | Activity (MDA-MB-231 [17]): 15% | Activity [18]: Active | Activity (T47D [19]): <=10% | Activity (T47D [20]): Active | Activity (DU-145): inactive | Activity (T47D [21]): inactive | Activity [22]: Active | Activity (HUVEC [23]): Active | Activity (T47D [24]): inactive | inhibition (T47D [25]): 87% | Activity (T47D [26]): Dose-dependent effect | Activity (HUVEC [27]): inactive | Activity (MDA-MB-231 [28]): Dose-dependent effect | Activity (HUVEC [29]): Active | Activity (T47D [30]): inactive | Activity (T47D [31]): Active | Activity (MDA-MB-231 [32]): Dose-dependent effect | Activity (T47D [33]): inactive | Activity (MDA-MB-231 [34]): Active | inhibition (T47D [35]): 30% | Activity (T47D [36]): inactive | inhibition of growth at 30 µM (PC-3): 52% | Activity (T47D [37]): Active | Activity (HUVEC [38]): Active
